Key:
Experiment in all cases: spectrophotometric NADH formation at […] nm, cell extract
Assay type in all cases: biochemical
Conditions in all cases: 0.4 mM NAD+, 5 mM 6-phosphogluconate, 5 mM MgCl2, 50 mM Tris-HCl pH 8.0, 30 C
[1] = target: T1, GndA (M. flagellatus NAD+-dependent 6-phosphogluconate dehydrogenase, gndA) (Methylobacillus flagellatus, UniProt Q9L9P8)
T1 construct: codon-optimized gene, TPI1 promoter, integrated at GND1 locus of S. cerevisiae gnd1 gnd2 deletion strain IMX705; cell extract

[2] = target: T2, B. japonicum 6pgdh (NAD+-dependent 6-phosphogluconate dehydrogenase) (Bradyrhizobium diazoefficiens, UniProt Q89FE2)
T2 construct: gene blr6759; codon-optimized gene, TPI1 promoter, integrated at GND1 locus of S. cerevisiae gnd1 gnd2 deletion strain IMX706; cell extract

[3] = target: T3, G. oxydans gox1705 (NAD+-preferring 6-phosphogluconate dehydrogenase) (Gluconobacter oxydans, UniProt G5EBD7)
T3 construct: codon-optimized gene, TPI1 promoter, integrated at GND1 locus of S. cerevisiae gnd1 gnd2 deletion strain IMX707; cell extract
T3 sequence (G5EBD7 whole entry): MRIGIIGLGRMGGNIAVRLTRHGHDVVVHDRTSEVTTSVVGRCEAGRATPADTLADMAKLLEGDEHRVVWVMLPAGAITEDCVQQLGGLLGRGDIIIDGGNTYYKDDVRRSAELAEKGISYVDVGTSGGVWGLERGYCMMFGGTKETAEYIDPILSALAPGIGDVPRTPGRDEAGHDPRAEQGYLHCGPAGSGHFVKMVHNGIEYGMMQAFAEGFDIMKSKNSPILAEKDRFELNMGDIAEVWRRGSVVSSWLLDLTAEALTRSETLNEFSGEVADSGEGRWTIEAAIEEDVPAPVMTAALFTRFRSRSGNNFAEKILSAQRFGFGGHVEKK

T2 sequence (Q89FE2 entry or part of it): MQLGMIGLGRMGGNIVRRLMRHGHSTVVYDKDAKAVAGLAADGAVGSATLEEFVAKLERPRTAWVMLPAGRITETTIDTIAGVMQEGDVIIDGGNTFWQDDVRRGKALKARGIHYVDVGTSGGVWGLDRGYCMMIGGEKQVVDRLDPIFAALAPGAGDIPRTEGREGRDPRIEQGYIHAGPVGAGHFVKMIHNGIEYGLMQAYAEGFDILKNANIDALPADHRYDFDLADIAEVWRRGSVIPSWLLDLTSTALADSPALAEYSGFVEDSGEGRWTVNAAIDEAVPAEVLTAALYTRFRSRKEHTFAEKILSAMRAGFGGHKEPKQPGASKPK
T1 sequence (Q9L9P8 entry or part of it): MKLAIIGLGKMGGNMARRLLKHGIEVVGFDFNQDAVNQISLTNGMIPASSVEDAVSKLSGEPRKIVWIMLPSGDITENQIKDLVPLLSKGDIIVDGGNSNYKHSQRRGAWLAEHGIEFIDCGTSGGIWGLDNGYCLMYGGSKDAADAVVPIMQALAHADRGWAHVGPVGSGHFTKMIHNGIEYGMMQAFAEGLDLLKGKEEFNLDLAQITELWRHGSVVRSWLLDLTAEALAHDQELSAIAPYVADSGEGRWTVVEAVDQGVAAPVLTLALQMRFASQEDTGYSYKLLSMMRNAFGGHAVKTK

**Q.** Which “spectrophotometric NADH formation at 340 nm, cell extract” value (“spectrophotometric NADH formation” for short) [1] does the source give for NC(=O)c1ccc[n+]([C@@H]2O[C@H](COP(=O)(O)OP(=O)(O)OC[C@H]3O[C@@H](n4cnc5c(N)ncnc54)[C@H](O)[C@@H]3O)[C@@H](O)[C@H]2O)c1 [NAD^+] here?
**A.** Its value is “expressing gndA from M. flagellatus, showed the highest in vitro NAD^+-dependent 6-PGDH activity”.

**Q.** And the “spectrophotometric NADH formation” value [2]?
**A.** Its value is “expressing bacterial 6-PGDH genes showed high specific activities with NAD^+ as the electron acceptor”.

**Q.** What about the “spectrophotometric NADH formation” value [3] of the same molecule?
**A.** The value was “expressing bacterial 6-PGDH genes showed high specific activities with NAD^+ as the electron acceptor”.

Source: paper PMC5574463, “Improving ethanol yield in acetate-reducing Saccharomyces cerevisiae by cofactor engineering of 6-phosphogluconate dehydrogenase and deletion of ALD6” (Microbial Cell Factories, 2016)
